What was measured:
[1] = Relative humidity stability over saturated salt solutions at ambient temperature, analysed by XRPD; type: physicochemical; conditions: for Dissociation by XRPD: 75, 94, or 98% RH after four weeks
Protocol: Relative humidity (RH) conditions were created at ambient temperatures using saturated salt solutions: NaCl ˜75%, KNO3 ˜94%, and K2SO4 ˜98%. Vials of each sample containing approximately 10 mg, were subjected to physical stability at ˜75% RH, ˜94% RH, and ˜98% RH for one day, three days, one week, and four weeks within a closed chamber. […] Upon completion of the duration allowed, the samples were immediately analyzed by XRPD.

[2] = Physical stability upon slurrying in water; type: physicochemical; conditions: for Behaviour upon slurrying in water: three days
Description: […]. […] […]. […]

cancer cell lines = cancer cell lines in vitro; cited from earlier work
[3] = Protocol: Solubility and concentration measurements were performed using ultraviolet (UV) spectroscopy on a Spectramax Microplate Reader.
Appropriate dilutions with water were made as necessary to maintain absorbance readings within the standard curve. All experiments were repeated three times to evaluate the standard deviation, while particle size was not controlled for any of the experiments.

[4] = Powder dissolution of cocrystal 4 (attempted for cocrystal 3): slurry in water at ambient, UV at 315 nm; type: physicochemical
[5] = Physical stability at elevated temperature and/or relative humidity, analysed by XRPD; type: physicochemical
Protocol: Physical stability was evaluated at approximately 40° C., 60° C., 25° C./75% RH, 25° C./98% RH, and 40° C./75% RH and XRPD was used to detect dissociation or form conversion. Vials of each cocrystal were subjected to each condition for durations of two weeks, one month, and two months. Upon completion of the duration allowed, the samples were immediately analyzed by XRPD.

[6] = Attempted intrinsic dissolution in 900 mL water at ambient conditions; type: physicochemical; conditions: after 30 minutes
Protocol: Intrinsic dissolution in 900 mL water at ambient conditions was also attempted. […] Therefore, a concentration vs. time and intrinsic dissolution rate value were unobtainable at these conditions.

Compound	Results (XRPD) ([1]; 75% RH, 1 week)	Results (XRPD) ([1]; 75% RH, 4 weeks)	Results (XRPD) ([1]; 75% RH, 1 day)	Results (XRPD) ([1]; 75% RH, 3 days)	Results (XRPD) ([1]; 94% RH, 1 week (7 days))	Results (XRPD) ([1]; 94% RH, 4 weeks)	Results (XRPD) ([1]; 94% RH, 1 day)	Results (XRPD) ([1]; 94% RH, 3 days)	Results (XRPD) ([1]; 98% RH, 1 week)	Results (XRPD) ([1]; 98% RH, 4 weeks)	Results (XRPD) ([1]; 98% RH, 1 day)	Results (XRPD) ([1]; 98% RH, 3 days)	Behaviour upon slurrying in water [2]	Dissociation by XRPD [1]	also measured
Cn1c(=O)c2c(ncn2C)n(C)c1=O [caffeine]	caffeine anhydrous	caffeine anhydrous	caffeine anhydrous	caffeine anhydrous	caffeine hydrate	caffeine hydrate	caffeine anhydrous	caffeine anhydrous/caffeine hydrate	caffeine hydrate	caffeine hydrate	caffeine hydrate	caffeine hydrate	–	–	Conversion to hydrate ([1]; 75% RH, up to four weeks): does not display signs of conversion; Time of partial conversion to hydrate/dihydrate ([1]; 94% RH): between one and three days; Time of (full) conversion to hydrate/dihydrate ([1]; 98% RH): less than one day
COc1cc(/C=C/c2ccc(O)cc2)cc(OC)c1.Cn1c(=O)c2c(ncn2C)n(C)c1=O [cocrystal 1 (Form I), pterostilbene:caffeine]	cocrystal 1 (Form I), no caffeine hydrate	cocrystal 1 (Form I), no caffeine hydrate	cocrystal 1 (Form I), no caffeine hydrate	cocrystal 1 (Form I), no caffeine hydrate	cocrystal 1 (Form I), no caffeine hydrate	cocrystal 1 (Form I), no caffeine hydrate	cocrystal 1 (Form I), no caffeine hydrate	cocrystal 1 (Form I), no caffeine hydrate	–	–	–	–	precipitation of pterostilbene	–	Results (XRPD) ([1]; 75% RH, 1 week, then additional stress at 98% RH, 1 week): cocrystal 1 (Form I), no caffeine hydrate; Results (XRPD) ([1]; 75% RH, 1 day, then additional stress at 98% RH, 1 day): cocrystal 1 (Form I), no caffeine hydrate; Results (XRPD) ([1]; 94% RH, 7 days, then additional stress at 98% RH, 4 weeks): cocrystal 1 (Form I), no caffeine hydrate; Results (XRPD) ([2]; Table 19, slurry, 2 days): cocrystal 1 (Form I), no caffeine hydrate
COc1cc(/C=C/c2ccc(O)cc2)cc(OC)c1.Cn1c(=O)c2c(ncn2C)n(C)c1=O [cocrystal 1, pterostilbene:caffeine]	–	–	–	–	–	–	–	–	–	–	–	–	–	no dissociation	–
COc1cc(/C=C/c2ccc(O)cc2)cc(OC)c1 [pterostilbene, trans-3,5-dimethoxy-4′-hydroxystilbene]	–	pterostilbene (Form I)	–	–	–	pterostilbene (Form I)	–	–	–	pterostilbene (Form I)	–	–	–	–	Cytotoxic activity (cancer cell lines): cytotoxic activity
pterostilbene:carbamazepine [cocrystal 2]	cocrystal 2, no carbamazepine dihydrate	cocrystal 2, no carbamazepine dihydrate	cocrystal 2, no carbamazepine dihydrate	cocrystal 2, no carbamazepine dihydrate	cocrystal 2, no carbamazepine dihydrate	cocrystal 2, no carbamazepine dihydrate	cocrystal 2, no carbamazepine dihydrate	cocrystal 2, no carbamazepine dihydrate	cocrystal 2, no carbamazepine dihydrate	cocrystal 2, no carbamazepine dihydrate	cocrystal 2, no carbamazepine dihydrate	cocrystal 2, no carbamazepine dihydrate	stable	–	Solubility (±standard deviation) [3]: 8.5 ± 0.7 µg/mL
pterostilbene:glutaric acid [cocrystal 3]	–	–	–	–	–	–	–	–	–	–	–	–	–	no dissociation	Solubility relative to pterostilbene ([4]; concluded from crystalline pterostilbene being the only product after slurrying in water): greater than the solubility of pterostilbene; XRPD result after slurrying in water ([4]; water at ambient, after 5 minutes): crystalline pterostilbene; Results (by XRPD) ([5]; 25° C./75% RH, 2 weeks): cocrystal 3; Results (by XRPD) ([5]; 25° C./75% RH, 4 weeks): cocrystal 3; Results (by XRPD) ([5]; 25° C./75% RH, 8 weeks): cocrystal 3; Results (by XRPD) ([5]; 25° C./98% RH, 2 weeks): cocrystal 3; Results (by XRPD) ([5]; 25° C./98% RH, 4 weeks): cocrystal 3; Results (by XRPD) ([5]; 25° C./98% RH, 8 weeks): cocrystal 3; Results (by XRPD) ([5]; 40° C., 2 weeks): cocrystal 3; Results (by XRPD) ([5]; 40° C., 4 weeks): cocrystal 3; Results (by XRPD) ([5]; 40° C., 8 weeks): cocrystal 3; Results (by XRPD) ([5]; 40° C./75% RH, 2 weeks): cocrystal 3; Results (by XRPD) ([5]; 40° C./75% RH, 4 weeks): cocrystal 3; Results (by XRPD) ([5]; 40° C./75% RH, 8 weeks): cocrystal 3; Results (by XRPD) ([5]; 60° C., 2 weeks): cocrystal 3; Results (by XRPD) ([5]; 60° C., 4 weeks): cocrystal 3; Results (by XRPD) ([5]; 60° C., 8 weeks): cocrystal 3; XRPD result in intrinsic dissolution [6]: crystalline pterostilbene
